Experimental data reported in ChEMBL document CHEMBL5360532, “Current scenario of quinolone hybrids with potential antibacterial activity against ESKAPE pathogens” (Eur J Med Chem, 2023).
Converted amounts (≈) assume the structure as drawn.

What was measured:
Assay type in all cases: functional
[1] = tested on: Mycobacterium tuberculosis; experiment: Antimycobacterial activity against multidrug resistant Mycobacterium tuberculosis assessed as bacterial growth inhibition by agar cup diffusion assay
[2] = tested on: Mycobacterium tuberculosis; experiment: Antimycobacterial activity against extensive drug resistant Mycobacterium tuberculosis assessed as bacterial growth inhibition by agar cup diffusion assay
[3] = tested on: Mycobacterium tuberculosis; experiment: Potency index, ratio of ciprofloxacin MIC to test compound MIC for antimycobacterial activity against extensive drug resistant Mycobacterium tuberculosis assessed as bacterial growth inhibition by LJ slant assay
[4] = tested on: Mycobacterium tuberculosis; experiment: Potency index, ratio of ciprofloxacin MIC to test compound MIC for antimycobacterial activity against multidrug resistant Mycobacterium tuberculosis assessed as bacterial growth inhibition by LJ slant assay

Structure (SMILES)	MIC [1] [µg/mL]	MIC [2] [µg/mL]	Ratio [3]	Ratio [4]
C=CCn1c(SCC(=O)N2CCN(c3cc4c(cc3F)c(=O)c(C(=O)O)cn4C3CC3)CC2)nnc1-c1ccccc1	4 (≈ 6.8 µM)	4 (≈ 6.8 µM)	–	–
O=c1c(-c2nnc(S)o2)cn(C2CC2)c2cc(N3CCNCC3)c(F)cc12	–	–	>=32	>=32
O=C(CN1CCN(c2cc3c(cc2F)c(=O)c(C(=O)O)cn3C2CC2)CC1)Nc1nnc(-c2ccccc2)s1	8 (≈ 14.6 µM)	8 (≈ 14.6 µM)	–	–
